The text below walks through data of article PMC9026853, “Design, Physicochemical Characterization, and In Vitro Permeation of Innovative Resatorvid Topical Formulations for Targeted Skin Drug Delivery” (Pharmaceutics, 2022).

The nature of data set [1]: In vitro oil-water partitioning coefficient (Log-P), 1-octanol/PBS, HPLC. Format: physicochemical. As to conditions: for Experimental (Log-P): n = 3, mean ± SD; for partition coefficient (Log-P), range over pH: pH 6.5, 7.1, 8.8. How it is done: The HPLC consisted of a Shimadzu LC-2010A HT liquid chromatograph (Torrance, CA, USA), coupled with a UV–Vis dual wavelength detector. The analysis was performed by a reverse-phase HPLC assay, using a Luna C18, 5 μm column (250 mm × 2 mm) (Phenomenex, Torrance, CA, USA), maintained at 25 °C ± 2 °C. Ultraviolet detection was done at 254 nm. The mobile phase conditions were 50:50 (v/v) acetonitrile: trifluoroacetic acid (0.1% v/v) at a flow rate of 0.3 mL/min. The injection volume was 10 µL. The retention time for resatorvid was ~15.9 min. Quantification was determined using peak area and calculated from a five-point standard curve (0.0625 mg/mL to 1 mg/mL, R^2 = 0.9971). Standards were prepared by volumetric dilution in acetonitrile and stored at 4 °C, protected from light. The modifications made to the method were using a column length of 250 mm × 2 mm instead of 150 mm × 2.1 mm and a mobile phase of 50:50 (v/v) acetonitrile: trifluoroacetic acid (0.1% v/v) instead of 40:60 (v/v) acetonitrile: trifluoroacetic acid (0.1% v/v) as previously reported.
Resatorvid raw powder was weighed out (0.003 g) and placed in 2 dram amber-colored glass vials containing equal volumes (1.5 mL) of 1-octanol and PBS (1×, pH = 7.4) to make a 1 mg/mL solution. Various solutions were made, and the pH was adjusted and maintained at pH values of 6.5, 7.1, 8.8. Adjustments to the pH were made using 0.1 M hydrochloric acid (HCl) solution and 0.1 M sodium hydroxide (NaOH) solution. […] The vials were rotated using a Barnstead/Thermolyne Labquake shaker (Dubuque, IA, USA) for 24 h and left undisturbed in a vertical position for an additional 24 h for phase separation between the aqueous and non-aqueous layers. Then, 200 μL of the organic and aqueous layers were sampled very carefully without disturbing the separation of phases and analyzed via the HPLC method previously mentioned.

Data set [2] in a line: In vitro cell dose-response (resazurin viability) in 2D culture, HaCaT. The data set is classed as cell-based, human. The settings on record: human, HaCaT cells (transformed keratinocytes), 2D culture; concentrations at 0.01 µM and 0.1 µM. How it is done:
(§1) The effects of raw resatorvid on the viability of human representative keratinocyte cell lines exposed to concentrations at 1000 μM, 100 μM, 10 μM, 1 µM, 0.1 µM, and 0.01 µM were tested. HaCaT cells (a human transformed keratinocyte from a histologically normal skin cell line) and primary NHEKs (normal human epidermal keratinocyte cells) were used as models of the human epidermis, which generates keratinocytes in the stratum basale and then differentiates into the final barrier layer of the skin, the stratum corneum. The HaCaT cells were grown in Dulbecco’s modified Eagle’s medium (DMEM), Optimized 1×, 10% (v/v) FBS, and Pen-Strep (100 units/mL penicillin, 100 µg/mL) in a humidified incubator at 37 °C and 5% CO2. The NHEK cells were grown in an NHEK growth medium provided by MatTek (Ashland, MA, USA) in a humidified incubator at 37 °C and 5% CO2.
(§2) After confluence, the HaCaT and NHEK cells were seeded in a black 96-well plate at a concentration of 5000 cells in 100 µL of media/well, then incubated for 48 h to allow attachment to the surface of the plates. After 48 h, the cells were then exposed to the different concentrations of resatorvid previously mentioned. The drug solutions were prepared by dissolving raw resatorvid powder in 5% (v/v) DMSO and adequate growth medium to make a solution at 1×. A volume of 100 µL of drug solution was added to each well. […] The fluorescence intensity of resorufin was detected at 544 nm (excitation) and 590 nm (emission) using the Molecular Devices® SpectraMax® M3 Multi-Mode Microplate Reader (Sunnyvale, CA, USA). The relative viability of the cells was calculated as followed by Equation (1):(1) Relative Viability %=Sample flourescence intensity/Control flourescece intensity×100%
For orientation: Resazurin is reduced to fluorescent resorufin, in cell work by metabolically active cells.

A further data set deals with HaCaT cells. The data set is described as above. The data set is classed as cell-based, human. The settings on record: for toxicity to HaCaT cells: 0.01-1000 µM raw resatorvid, 72 h exposure as printed in results. How it is done:
as §1, §2

Data set [3] can be described thus: In vitro cell dose-response (resazurin viability) in 2D culture, NHEK. The data set is classed as cell-based, human. As to conditions: human; all concentrations (0.01-1000 µM); read-out: viability of NHEK cells. The procedure:
as §1, §2

Data set [4] has as its system primary normal human epidermal keratinocytes (NHEKs). The description is as above. The data set is classed as cell-based. As to conditions: 0.01-1000 µM raw resatorvid, 72 h exposure as printed in results. How it is done: as §1, §2
The nature of data set [5]: Residual water content by Karl Fisher coulometric titration. As to conditions: KFT, n = 4, mean ± SD, Table S2. Format: physicochemical. How it is done:
The residual water content of raw resatorvid powder was quantified by coulometric KFT using a TitroLine 750 trace titrator (SI Analytics, Weilheim, Germany). In brief, 1 mL of 0.1% (w/v) of resatorvid in anhydrous methanol was added to the titration cell containing Hydranal® Coulomat AD reagent.

A short description of data set [6]: Particle sizing by SEM image analysis. The data set is classed as physicochemical. The source says: The particle size and surface morphology of raw resatorvid were obtained using scanning electron microscopy (SEM) (FEI, Brno, Czech Republic). The samples were sprinkled onto the double-sided adhesive carbon tabs (Ted Patella, Inc. Redding, CA, USA), which were adhered to aluminum stubs and coated with a 7 nm thin film of gold palladium alloy, using an Anatech Hummer 6.2 (Union City, CA, USA) sputtering system at 20 µA for 90 s under an argon plasma. The electron beam with an accelerating voltage of 30 kV was used at a working distance of approximately 9–12 mm. The SEM images were collected at various magnifications.
Using SEM micrographs, the mean size, standard deviation, and size range of the particles were determined digitally using SigmaScan^TM Pro 5.0.0 (Systat, Inc., San Jose, CA, USA). Representative micrographs of raw resatorvid at 400–5000× magnification were analyzed by measuring the diameter of at least 60 particles per sampling.

The conditions of data set [7]: method and reference not given; cited from earlier work.
Details of data set [8]: method as in PMID 29437671. The settings on record: standardized Franz cell system; cited from earlier work.
In the next data set the test system is SKH-1 mice. The arrangement: method as in PMID 29437671. As to conditions: topical, cited from earlier work.

Where “and” joins values, the source holds several entries; their conditions need not be identical. Identical values can stand only once.

One may read the viability as the share of living cells, or the viability signal relative to a control. For the compound `CCOC(=O)C1=CCCC[C@H]1S(=O)(=O)Nc1ccc(F)cc1Cl` [resatorvid, ethyl (6R)-6-[N-(2-Chloro-4-fluorophenyl)sulfamoyl]cyclohex-1-ene-1-carboxylate], the “Experimental (Log-P)” value in data set [1] (At 35 °C, pH = 6.5, 1-octanol/PBS) is 1.65 ± 0.029; in data set [1] (At 35 °C, pH = 7.1) it was 1.68 and 1.68 ± 0.013; in [1] (At 35 °C, pH = 8.8) it was 0.94 ± 0.023; in [1] (At Room temperature/ambient temperature, pH = 6.5), 1.58 ± 0.019; in data set [1] (At Room temperature/ambient temperature, pH = 7.1), 1.54 ± 0.149; in data set [1] (At Room temperature/ambient temperature, pH = 8.8), 0.88 ± 0.060. Besides, the “partition coefficient (Log-P), range over pH” value is reported as 0.94–1.68 in data set [1] (at 35 °C) and 0.88–1.58 in data set [1] (at room/ambient temperature). Besides, the viability at 48 h in data set [2] and in [3] was about 100% in each case. Also, the “toxicity to HaCaT cells” value with HaCaT cells is recorded as “negligible toxicity”; with HaCaT cells (listed as Resatorvid), “did not show any significant toxicity”. Besides, in the data set on HaCaT cells (concentration increased from 1 µM to 1000 µM), the “effect on HaCaT cells at higher concentrations” value is reported as “cell proliferation was observed”. In addition, the “toxicity to NHEK cells” value in [4] is recorded as “negligible toxicity”; in data set [4] (listed as Resatorvid), “did not show any significant toxicity”. In addition, the “Residual Water content” value in data set [5] is 0.0173 ± 0.0156 %w/w. Besides, in [6], the “average geometric (linear) size of the raw particles” value is listed as 5.84 µm. Further, the “experimentally determined pKa reported” value in data set [7] is recorded as 8.0–8.1. Further, the amount of resatorvid in the lower epidermis (tape strips 4–12), average over time course in data set [8] was 5 µg/cm^2. Moreover, the “time remaining in the skin” value in data set [8] is recorded as “at least 8 hr”. In addition, the “modulation of UV-induced biomarkers” value with SKH-1 mice (acetone solution of TAK-242 (13 mM), SKH-1 mice) was “successfully modulated UV-induced biomarkers”. The “UV-induced AP-1 activation” value in the data set on SKH-1 mice (mice) is “reduces UV-induced AP-1 activation”. For the same compound, the photocarcinogenesis result in the data set with SKH-1 mice (mice) is recorded as “inhibits photocarcinogenesis”.
